Data on seven compounds can be found in patent US20100120715A1, “BETA-LACTAMASE INHIBITORS” (priority 2007, published 2010).

SMILES strings stand for the structures. pIC50: −log10 of the molar value. Read-outs that look alike come from different tables or passages of the source.

Assay [1] relates to K. pneumoniae expressing the Class A ESBL CTX-M-15. The assay is described as follows: microbe, parasite or virus in culture. The class given is cell-based. The following applies: in the presence of fixed 8 μg/mL Ceftazidime. From the text:
To determine the ability of test compounds to potentiate the inhibition of the growth of bacterial strains producing beta-lactamase enzymes, classic cell based screening assays were employed. Four bacteria strains producing beta-lactamase enzymes were used: K. pneumoniae expressing the Class A Extended Spectrum Beta-Lactamase (ESBL) CTX-M-15, E. coli expressing the Class A ESBL SHV-5, E. cloacae expressing the Class C P99+, and K. pneumoniae expressing the Class A carbapenemase KPC-2. In order to evaluate the ability of test compounds to inhibit beta-lactamase activity, Applicants used a modification of the broth microdilution assay. The assay was conducted in Cation Adjusted Mueller Hinton Broth (CAMHB, BD # 212322, BD Diagnostic Systems, Sparks, Md.). Bacteria strains were grown for 3-5 hours in CAMBH broth. All four strains were grown in presence of 50 μg/mL ampicillin to ensure resistance is maintained. In the meantime, test compounds were diluted in DMSO to a 0.1 mg/mL stock. The compounds were added to a microtiter plate and were diluted in 2-fold serial dilutions in CAMHB in a final concentration range of 8 μg/mL to 0.015 μg/ml. […] […] Each of these compound plates are made in quadruplicate, one for each bacteria strain. In addition to the titration of test compounds the MICs of a panel of cephalosporins is also tested to ensure the strains are behaving consistently from test to test. Once the test compound and cephalosporin are added the plates can be inoculated. Inocula are conducted according to CLSI broth microdilution method. After inoculation the plates are incubated for 16-20 hours at 37° C. then the Minimal Inhibitory Concentration (MIC) of the test compound is determined visually.

The subject of assay [2] is K. pneumoniae expressing the Class A carbapenemase KPC-2. Put plainly: microbe, parasite or virus in culture. The following applies: in the presence of fixed 8 μg/mL Ceftazidime. The source says:
To determine the ability of test compounds to potentiate the inhibition of the growth of bacterial strains producing beta-lactamase enzymes, classic cell based screening assays were employed. Four bacteria strains producing beta-lactamase enzymes were used: K. pneumoniae expressing the Class A Extended Spectrum Beta-Lactamase (ESBL) CTX-M-15, E. coli expressing the Class A ESBL SHV-5, E. cloacae expressing the Class C P99+, and K. pneumoniae expressing the Class A carbapenemase KPC-2. In order to evaluate the ability of test compounds to inhibit beta-lactamase activity, Applicants used a modification of the broth microdilution assay. The assay was conducted in Cation Adjusted Mueller Hinton Broth (CAMHB, BD # 212322, BD Diagnostic Systems, Sparks, Md.). Bacteria strains were grown for 3-5 hours in CAMBH broth. All four strains were grown in presence of 50 μg/mL ampicillin to ensure resistance is maintained. In the meantime, test compounds were diluted in DMSO to a 0.1 mg/mL stock. The compounds were added to a microtiter plate and were diluted in 2-fold serial dilutions in CAMHB in a final concentration range of 8 μg/mL to 0.015 μg/ml. An overlay of CAMHB containing a cephalosporin was added to the compounds at a final static concentration of 8 μg/ml. […] Each of these compound plates are made in quadruplicate, one for each bacteria strain. In addition to the titration of test compounds the MICs of a panel of cephalosporins is also tested to ensure the strains are behaving consistently from test to test. Once the test compound and cephalosporin are added the plates can be inoculated. Inocula are conducted according to CLSI broth microdilution method. After inoculation the plates are incubated for 16-20 hours at 37° C. then the Minimal Inhibitory Concentration (MIC) of the test compound is determined visually.

The target of a further assay is T1, Class C P99 AmpC (Enterobacter cloacae, UniProt P05364).
T1 construct: made in house; host or cells: E. coli BL21(DE3)
The class given is biochemical. The following applies: purified enzyme; nitrocefin 100 μM, PBS pH 7.0; read-out: P99 AmpC IC50 Range. How it is done:
(§1) Isolation of β-lactamases. For all examples, purified beta-lactamase enzymes were used to measure a compounds' ability to inhibit the Class A ESBL CTXM-15, the Class C P99 AmpC and the Class A carbapenemase KPC-2. […] The enzyme preparations are described herein.
(§2) For the isolation and purification of SHV-5, p99 AmpC, KPC-2 and CTX-M15 β-lactamases, E. coli BL21(DE3) bacterial cells carrying expression plasmids (expressed as native untagged proteins) for the individual β-lactamases were grown in 1 L of Superbroth (Teknova Inc. Hollister, Calif.) supplemented with 100 μg/ml kanamycin and 1×5052 (0.5% glycerol, 0.05% glucose and 0.2% α-lactose) at 35° C. for 18-20 hours. Cells were harvested by centrifugation (4,000×g, 4° C., 20 min), and resuspended in 50 ml of 10 mM HEPES pH 7.5 ( 1/20 of the initial volume). The cells were lysed by sonication (5 pulses of 45 seconds) at 45 W on ice. The lysates were clarified by centrifugation at 10,000×g for 40 minutes at 4° C. Samples were diluted 5-fold in 50 mM sodium acetate pH 5.0, stored overnight at 4° C., after which they were centrifuged at 10,000×g for 30 minutes to clarify, and filtered through 0.45 μm filters. The samples were loaded onto a 5 ml Capto S sepharose cation exchange column (GE Healthcare) pre-equilibrated with 50 mM sodium acetate pH 5.0. The column was washed with 5 column volumes of 50 mM sodium acetate pH 5.0 to wash out unbound protein and a linear gradient of NaCl (0 to 500 mM) was used to elute the protein (over 16 CV) from the column. Fractions were assayed for β-lactamase activity using Centa (Calbiochem, Gibbstown, N.J.) as a reporter β-lactamase substrate for activity in the isolated fractions. Active fractions were pooled, concentrated and further purified by gel filtration chromatography on a Superdex 75 prep grade gel filtration column (GE Healthcare, Piscataway, N.J.) pre-equilibrated in 50 mM Hepes pH 7.5, 150 mM NaCl. Active fractions were pooled concentrated, quantitated by BCA protein determination (Thermo Scientific, Rockford, Ill.), and frozen at −80° C. in 20% glycerol until use.
(§3) β-lactamase Inhibition. To determine the level of inhibition of β-lactamaseenzymes, compounds were diluted in PBS at pH 7.0 to yield concentrations between 100 and 0.005 μM in microtiter plates. An equal volume of diluted enzyme stock was added, and the plates were incubated at 37° C. for 10 min. Nitrocefin solution was then dispensed as substrate into each well at a final concentration of 100 μM, and the plates were immediately read with the kinetic program at 486 nm for 10 min on the SPECTRAMAX® Plus^384 (high-throughput microplate spectrophotometer; Molecular Devices Corp., Sunnyvale, Calif.). Maximum rates of metabolism were then compared to those in control wells (without inhibitors), and percentages of enzyme inhibition were calculated for each concentration of inhibitor. The concentration of inhibitor needed to reduce the initial rate of hydrolysis of substrate by 50% (IC50) was calculated as the residual activity of β-lactamase at 486 nm using the SoftMax Pro 5.0 software (Molecular Devices Corp.).

In the next assay the target is T2, Class A ESBL SHV-5 (Klebsiella pneumoniae, UniProt P0A3M1).
T2 construct: made in house; host or cells: E. coli BL21(DE3) for purified enzyme; E. coli cells containing SHV-5 for extracts
The class given is biochemical, E. coli. Conditions: nitrocefin 100 μM, PBS pH 7.0, read-out: SHV-5 IC50 Range. How it is done: as §1
For the preparation of SHV-5 extracts, E. coli cells containing SHV-5 were cultured overnight with shaking at a volume of 20 mL. They were further diluted 10-fold and grown to mid-log phase (OD at 600 nm, 0.5-0.8) in Mueller-Hinton II (MH-II) broth at 37° C. The cells were pelleted at 5000 g, washed and resuspended in 2 mL PBS pH 7.0. The β-lactamase was extracted by four cycles of freezing and thawing followed by centrifugation. β-lactamase activity in the extract was measured with the chromogenic cephalosporin nitrocefin. The amount of protein in each β-lactamase preparation was determined by the bicinchoninic acid (BCA) assay.
as §2, §3

A further assay concerns the target T3, Class A ESBL CTXM-15 (Escherichia coli, UniProt Q9EXV5).
T3 construct: made in house; host or cells: E. coli BL21(DE3)
The assay is described as follows: β-lactamase enzyme inhibition (nitrocefin hydrolysis), CTXM-15. Conditions: purified enzyme; nitrocefin 100 μM, PBS pH 7.0; read-out: CTXM-15 IC50 Range. The class given is biochemical. As to the method: as §1, §2, §3

Assay [3] deals with T4, Class A carbapenemase KPC-2 (Klebsiella pneumoniae, UniProt Q9F663).
T4 construct: made in house; host or cells: E. coli BL21(DE3)
Put plainly: β-lactamase enzyme inhibition (nitrocefin hydrolysis), KPC-2. The class given is biochemical. The following applies: purified enzyme; nitrocefin 100 μM, PBS pH 7.0; read-out: KPC-2 IC50 Range. As to the method:
as §1, §2, §3

The mark [4] stands for this setting: purified beta-lactamase enzyme (Examples 1 and 31-64).

T4 sequence (Q9F663 25-293 limits assumed): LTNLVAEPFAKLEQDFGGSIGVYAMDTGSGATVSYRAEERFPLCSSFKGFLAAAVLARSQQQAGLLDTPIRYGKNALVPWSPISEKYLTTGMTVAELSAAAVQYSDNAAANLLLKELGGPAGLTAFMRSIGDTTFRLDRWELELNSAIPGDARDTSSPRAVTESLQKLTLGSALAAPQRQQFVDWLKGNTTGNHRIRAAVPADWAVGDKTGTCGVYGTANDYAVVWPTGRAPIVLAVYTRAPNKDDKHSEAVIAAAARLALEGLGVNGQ
T3 sequence (Q9EXV5 entry or part of it): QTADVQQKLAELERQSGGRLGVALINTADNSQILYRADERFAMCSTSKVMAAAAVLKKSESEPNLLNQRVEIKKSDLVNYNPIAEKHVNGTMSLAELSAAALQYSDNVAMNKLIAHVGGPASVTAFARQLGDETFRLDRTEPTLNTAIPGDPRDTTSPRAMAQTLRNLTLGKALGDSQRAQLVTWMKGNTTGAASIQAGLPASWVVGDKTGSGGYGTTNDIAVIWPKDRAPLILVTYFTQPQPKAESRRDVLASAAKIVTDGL
T2 sequence (P0A3M1 22-286): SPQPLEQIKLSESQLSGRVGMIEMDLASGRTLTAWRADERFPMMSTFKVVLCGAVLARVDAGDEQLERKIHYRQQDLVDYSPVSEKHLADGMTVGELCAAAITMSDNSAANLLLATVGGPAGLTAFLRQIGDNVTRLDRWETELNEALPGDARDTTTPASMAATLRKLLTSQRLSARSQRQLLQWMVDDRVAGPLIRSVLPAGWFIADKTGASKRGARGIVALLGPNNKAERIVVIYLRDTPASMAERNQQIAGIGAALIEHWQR
T1 sequence (P05364 21-381): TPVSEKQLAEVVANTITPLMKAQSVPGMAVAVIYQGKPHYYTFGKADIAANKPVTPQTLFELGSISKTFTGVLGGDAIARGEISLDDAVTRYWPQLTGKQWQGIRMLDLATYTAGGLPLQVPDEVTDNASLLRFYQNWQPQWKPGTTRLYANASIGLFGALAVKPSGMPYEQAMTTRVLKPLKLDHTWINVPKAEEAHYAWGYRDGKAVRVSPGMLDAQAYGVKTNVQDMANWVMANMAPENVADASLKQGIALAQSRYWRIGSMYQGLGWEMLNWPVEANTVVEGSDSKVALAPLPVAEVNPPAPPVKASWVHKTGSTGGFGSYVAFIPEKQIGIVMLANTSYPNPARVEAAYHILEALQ

In general, pIC50 refers to the negative decadic logarithm of the IC50, by convention in mol/L. With `O=C(N[C@@H](Cc1cccc(C(=O)O)c1O)B(O)O)c1cccc(O)c1` [Example 28, (1R)-1-(3-hydroxybenzoylamino)-2-(2-hydroxy-3-carboxyphenyl)ethyl-1-boronic acid], the “MIC of example compound, K. pneumoniae CTX-M-15 + 8 μg/mL CAZ” value (“MIC … K. pneumoniae CTX-M-15 + 8 μg/mL CAZ” below) in assay [1] was “C (C represents an MIC of <1 μg/mL)”. Further, the “MIC of example compound, K. pneumoniae KPC-2 + 8 μg/mL CAZ” value (“MIC … K. pneumoniae KPC-2 + 8 μg/mL CAZ” below) in assay [2] is given as “C (C represents an MIC of <1 μg/mL)”. Also, the pIC50 at Class C P99 AmpC is above 8.00; on Class A ESBL SHV-5 (cellular extracts of E. coli containing SHV-5 (Examples 2-30)), 7.00 to 8.00; at Class A ESBL CTXM-15 it was above 8.00; in assay [3] it was 7.00 to 8.00.
As to `O=C(N[C@@H](Cc1cccc(C(=O)O)c1O)B(O)O)c1ccc(Cl)nc1` [Example 31, (1R)-1-(6-Chloro-pyridine-3-carbonyl)-amino-1-(3-carboxy-2-hydroxy)benzyl-methylboronic acid], the “MIC … K. pneumoniae CTX-M-15 + 8 μg/mL CAZ” value in assay [1] is “C (C represents an MIC of <1 μg/mL)”. Further, the “MIC … K. pneumoniae KPC-2 + 8 μg/mL CAZ” value in assay [2] is “C (C represents an MIC of <1 μg/mL)”. The pIC50 (at Class C P99 AmpC; on Class A ESBL SHV-5 (setting [4]); on Class A ESBL CTXM-15; in assay [3]) was above 8.00 in each case.
Regarding `O=C(Cn1cccn1)N[C@@H](Cc1cccc(C(=O)O)c1O)B(O)O` [Example 40, (1R)-1-(Pyrazol-1-yl-acetylamino)-2-(2-hydroxy-3-carboxyphenyl)ethyl-1-boronic acid], the “MIC … K. pneumoniae CTX-M-15 + 8 μg/mL CAZ” value in assay [1] was “C (C represents an MIC of <1 μg/mL)”. The “MIC … K. pneumoniae KPC-2 + 8 μg/mL CAZ” value in assay [2] was “C (C represents an MIC of <1 μg/mL)”. In addition, the negative-log IC50 (pIC50) (on Class C P99 AmpC; at Class A ESBL SHV-5 (setting [4]); at Class A ESBL CTXM-15; in assay [3]) was 7.00 to 8.00 each time.
As for `O=C(CNC(=O)c1ccccc1)N[C@@H](Cc1cccc(C(=O)O)c1O)B(O)O` [Example 50, (1R)-1-(Hippuric amido)-2-(2-hydroxy-3-carboxyphenyl)ethyl-1-boronic acid], the “MIC … K. pneumoniae CTX-M-15 + 8 μg/mL CAZ” value in assay [1] is reported as “C (C represents an MIC of <1 μg/mL)”. In assay [2], the “MIC … K. pneumoniae KPC-2 + 8 μg/mL CAZ” value is “C (C represents an MIC of <1 μg/mL)”. In addition, the pIC50 (on Class C P99 AmpC; at Class A ESBL SHV-5 (setting [4]); at Class A ESBL CTXM-15; in assay [3]) was above 8.00 each time.
Regarding `O=C(N[C@@H](Cc1cccc(C(=O)O)c1O)B(O)O)c1cccnc1` [Example 51, (1R)-1-(Nicotinoylamino)-2-(2-hydroxy-3-carboxyphenyl)ethyl-1-boronic acid], the “MIC … K. pneumoniae CTX-M-15 + 8 μg/mL CAZ” value in assay [1] is “C (C represents an MIC of <1 μg/mL)”. Moreover, the “MIC … K. pneumoniae KPC-2 + 8 μg/mL CAZ” value in assay [2] is on record as “C (C represents an MIC of <1 μg/mL)”. Moreover, the pIC50 on Class C P99 AmpC was above 8.00; at Class A ESBL SHV-5 (setting [4]), 7.00 to 8.00; on Class A ESBL CTXM-15, above 8.00; in assay [3] it was above 8.00.
`Cn1ccc(C(=O)N[C@@H](Cc2cccc(C(=O)O)c2O)B(O)O)n1` [Example 53, (1R)-1-(1-Methyl-1H-pyrazole-3-carbonyl-amino)-2-(2-hydroxy-3-carboxyphenyl)ethyl-1-boronic acid]: the “MIC … K. pneumoniae CTX-M-15 + 8 μg/mL CAZ” value in assay [1] was “C (C represents an MIC of <1 μg/mL)”. In addition, in assay [2], the “MIC … K. pneumoniae KPC-2 + 8 μg/mL CAZ” value was “C (C represents an MIC of <1 μg/mL)”. Besides, the pIC50 at Class C P99 AmpC was above 8.00; at Class A ESBL SHV-5 (setting [4]), 6.00 to 7.00; on Class A ESBL CTXM-15, above 8.00; in assay [3], above 8.00.
As for `O=C(N[C@@H](Cc1cccc(C(=O)O)c1O)B(O)O)c1cncnc1` [Example 60, (1R)-1-(Pyrimidine-5-carbonyl-amino)-2-(2-hydroxyl-3-carboxyphenyl)ethyl-1-boronic acid], in assay [1], the “MIC … K. pneumoniae CTX-M-15 + 8 μg/mL CAZ” value is “C (C represents an MIC of <1 μg/mL)”. Further, the “MIC … K. pneumoniae KPC-2 + 8 μg/mL CAZ” value in assay [2] is listed as “C (C represents an MIC of <1 μg/mL)”. For the same compound, the pIC50 on Class C P99 AmpC is above 8.00; on Class A ESBL SHV-5 (setting [4]) it was 7.00 to 8.00; on Class A ESBL CTXM-15 it was 7.00 to 8.00; in assay [3], above 8.00.
